Source: patent publication US6403363B1, “Method of preservation of vaccines with polybiguanide” (priority 1997, dated 2002)
Where two headings read alike, the source gives them in different places.

What was measured:
[1] = Visible effect of preservative on allantoic fluid; type: physicochemical; settings: preservative 0.1%
Excerpt: The preserved samples were also examined to determine the visible effect on allantoic fluid, and the results are shown in Table 4 below.

seed virus grown in eggs = system: seed virus grown in eggs; design: species or system influenza virus

Q: With `O=[N+]([O-])C(Br)(CO)CO` [Nipaguard BNPD] as the compound, how does the “Effect on allantoic fluid (visible)” value [1] read?
A: The value was “No effect”.

Q: For `O=[N+]([O-])C(Br)(CO)CO` [bronopol, 2-bromo-2-nitropropan-1,2-diol], which “Infectivities (summary)” value (seed virus grown in eggs; 0.1% preservative) is on record?
A: The value was “Unsatisfactory”.

Q: And the “effect on egg infectivities” value (seed virus grown in eggs; compared with Cosmocil CQ and thiomersal, 0.1% bronopol, 0.4% Biopure)?
A: The value was “pronounced negative effect”.

Q: What about the “Log egg infective doses/ml” value (seed virus grown in eggs; virus seed + 0.1% preservative) of the same compound?
A: Its value is <5.4 log egg infective doses/ml.

Q: With `C[CH2][Hg][S]c1ccccc1C(=O)[O-].[Na+]` [thiomersal, sodium ethylmercurithiosalicylate] as the compound, how does the “Log egg infective doses/ml” value (seed virus grown in eggs; virus seed + 0.01% preservative) read?
A: Its value is 8.2.
